This is an account of results in patent US5235061A, “Fungicidal (1H-1,2,4-triazolyl)disilaalkanes” (priority 1991, dated 1993).

Where “and” joins values, the source holds several entries; their conditions need not be identical. Equal entries are not always repeated.

Holding throughout (assay): In vitro percent disease control (radii of spore growth on agar)
Holding throughout (format): cell-based

Data set [1] deals with Botryosphaeria dothidea Macrophoma sp. The settings on record: for inhibition of growth at 50 ppm / inhibition of growth at 100 ppm: Botryosphaeria dothidea, read-out: % controlled, Bo.do (Ma.). As for the experimental part:
(§1) The compounds of this invention were dissolved respectively in acetone in an amount equal to 10% of the final volume and then in purified water at the concentration of 100 ppm and 50 ppm.
(§2) Each of the solution was mixed with potato-sucrose-agar medium in a 6" petri dish and one of the fungi was spotted at the center of the dish. The dish was incubated in growth room for several days. The percent disease control was derived from the radii of spore growth. The screening tests in vitro condition are well-known to those skilled in the art.
(§3) The following fungi were used for the screening.
4) Bo.do(Ma); Botryosphaeria dothidea Macrophoma sp.

Another data set deals with Glomerella cingulata. The settings on record: for inhibition of growth at 50 ppm / inhibition of growth at 100 ppm: Colletotrichum gloeosporioides, read-out: % controlled, Glo. On the procedure: as §1, §2, §3
5) Glo.; Glomerella cingulata

In another data set the test system is Fusarium moniliforme. As for the experimental part: as §1, §2, §3
8) Fu.mo.; Fusarium moniliforme

The subject of another data set is Physalospora baccae. Conditions: for inhibition of growth at 50 ppm / inhibition of growth at 100 ppm: read-out: % controlled, Phy ba. On the procedure:
as §1, §2, §3
3) Phy. ba.; Physalospora baccae

The next data set concerns Botry tris cinerea. The settings on record: for inhibition of growth at 50 ppm / inhibition of growth at 100 ppm: read-out: % controlled, Bo ci. On the procedure:
as §1, §2, §3
10) Bo.ci.; Botry tris cinerea

The next data set relates to Phytophthora capsisi. The settings on record: Phytophthora, read-out: % controlled, Phy ca. On the procedure: as §1, §2, §3
2) Phy. ca.; Phytophthora capsisi

The next data set relates to Pyricalaria oryzae. The settings on record: for inhibition of growth at 50 ppm: read-out: % controlled, Py. or., 50 ppm; for inhibition of growth at 100 ppm: read-out: % controlled, Py. or., 100 ppm. On the procedure: as §1, §2, §3
6) Py.or.; Pyricalaria oryzae

For another data set, the system named is Alternaria mali. The settings on record: for inhibition of growth at 50 ppm / inhibition of growth at 100 ppm: Alternaria mali, read-out: % controlled, Al. As for the experimental part:
as §1, §2, §3

The next data set relates to Rhizopus sp. The settings on record: for inhibition of growth at 50 ppm / inhibition of growth at 100 ppm: Rhizopus, read-out: % controlled, Rhi. sp. As for the experimental part:
as §1, §2, §3

Another data set deals with Rhizoctonia solani. Conditions: for inhibition of growth at 50 ppm / inhibition of growth at 100 ppm: Rhizoctonia solani, read-out: % controlled, Rhy. so. As for the experimental part:
as §1, §2, §3
7) Rhi.so.; Rhizoctonia solani

As for `C=CC[Si](C[Si](C)(Cn1cncn1)c1ccc(F)cc1)(c1ccccc1)c1ccc(-c2ccccc2)cc1` (stereo not drawn), the inhibition of growth at 50 ppm in [1] (50 ppm) was determined as 100%; in the data set with Glomerella cingulata (50 ppm) it was 100%; in the data set on Physalospora baccae (50 ppm), 100%; in the data set with Botry tris cinerea (50 ppm) it was 86%; with Phytophthora capsisi, 27%; in the data set on Pyricalaria oryzae it was 85%. In addition, the inhibition of growth at 50 ppm with Alternaria mali (50 ppm) worked out at 78%; in the data set with Rhizopus sp. (50 ppm) it was 100%. The inhibition of growth at 100 ppm in data set [1] (100 ppm) was determined as 100%; in the data set with Glomerella cingulata (100 ppm), 100%; in the data set on Physalospora baccae (100 ppm), 100%; in the data set on Botry tris cinerea (100 ppm), 100%; in the data set on Phytophthora capsisi, 50%; in the data set on Pyricalaria oryzae it was 100%. The inhibition of growth at 100 ppm in the data set on Alternaria mali (100 ppm) and with Rhizopus sp. (100 ppm) was 100% each time. The “% controlled, Fu. mo.” value with Fusarium moniliforme (50 ppm) and in the data set on Fusarium moniliforme (100 ppm) was 100% each time.
For “2-(4-chlorophenyl)-2-(4-fluorophenyl)-2,4-dimethyl-1-(1H-1,2,4-triazol-1-yl)pentane”, the “% controlled, Bo.do (Ma.)” value in [1] (50 ppm) and in [1] (100 ppm) was 79% throughout. Moreover, the “% controlled, Glo.” value with Glomerella cingulata (50 ppm) and in the data set with Glomerella cingulata (100 ppm) was 87% throughout. The “% controlled, Fu. mo.” value in the data set with Fusarium moniliforme (50 ppm) and with Fusarium moniliforme (100 ppm) was 46% in each case. Besides, the “% controlled, Phy ba.” value in the data set with Physalospora baccae (50 ppm) and in the data set on Physalospora baccae (100 ppm) was 69% each time. The “% controlled, Bo ci.” value with Botry tris cinerea (50 ppm) and in the data set with Botry tris cinerea (100 ppm) was 90% each time. In addition, the “% controlled, Rhy. so.” value with Rhizoctonia solani (50 ppm) and with Rhizoctonia solani (100 ppm) was 96% each time. Besides, the “% controlled, Py. or.” value in the data set on Pyricalaria oryzae (50 ppm) and in the data set on Pyricalaria oryzae (100 ppm) was 100% throughout. For the same compound, the “% controlled, Al.” value is 75% in the data set on Alternaria mali (50 ppm) and 79% in the data set on Alternaria mali (100 ppm). In addition, the “% controlled, Rhi. sp.” value with Rhizopus sp. (50 ppm) and in the data set on Rhizopus sp. (100 ppm) was 50% in each case.
Take `C[Si](C)(C)C[Si](Cn1cncn1)(c1ccc(F)cc1)c1ccc(F)cc1` [2,2-bis(4-fluorophenyl)-4,4-dimethyl-2,4-disila-1-(1H-1,2,4-triazol-1-yl)pentane]: the inhibition of growth at 50 ppm in data set [1] (50 ppm) was 31%; in the data set with Glomerella cingulata (50 ppm) it was 60%; in the data set with Physalospora baccae (50 ppm), 20%; in the data set with Rhizoctonia solani (50 ppm), 60%; with Phytophthora capsisi, 6%; in the data set with Pyricalaria oryzae it was 57%. For the same compound, the figures for the inhibition of growth at 50 ppm in the data set with Alternaria mali (50 ppm) and in the data set with Rhizopus sp. (50 ppm) were 32% and 24%, respectively. The inhibition of growth at 100 ppm was 37% in [1] (100 ppm); 67% in the data set with Glomerella cingulata (100 ppm); 24% in the data set on Physalospora baccae (100 ppm); 67% in the data set with Rhizoctonia solani (100 ppm); 6% in the data set on Phytophthora capsisi; 61% in the data set on Pyricalaria oryzae. Also, the inhibition of growth at 100 ppm came to 35% in the data set with Alternaria mali (100 ppm) and 29% in the data set on Rhizopus sp. (100 ppm). In addition, the results for the “% controlled, Fu. mo.” value with Fusarium moniliforme (50 ppm) and in the data set with Fusarium moniliforme (100 ppm) were 31% and 34%, respectively.
For `C[Si](C)(C[Si](Cn1cncn1)(c1ccc(F)cc1)c1ccc(-c2ccccc2)cc1)c1ccc(F)cc1` (stereo not drawn) [2,4-bis(4-fluorophenyl)-2-(4-phenylphenyl)-4-methyl-2,4-disila-1-(1H-1,2,4-triazol-1-yl)pentane], the “% controlled, Bo.do (Ma.)” value in data set [1] (50 ppm) is 79% and 43%; in data set [1] (100 ppm), 79% and 51%. Moreover, the entries for the “% controlled, Glo.” value with Glomerella cingulata (50 ppm) and in the data set with Glomerella cingulata (100 ppm) were 76% and 78%, respectively. Besides, the inhibition of growth at 50 ppm in the data set on Glomerella cingulata (50 ppm) came to 87%; in the data set with Phytophthora capsisi, 12%. The figures for the inhibition of growth at 100 ppm with Glomerella cingulata (100 ppm) and in the data set with Phytophthora capsisi were 87% and 14%, respectively. The “% controlled, Fu. mo.” value in the data set with Fusarium moniliforme (50 ppm) is 46% and 41%; in the data set with Fusarium moniliforme (100 ppm), 46% and 45%. Moreover, in the data set on Botry tris cinerea (100 ppm), the “% controlled, Bo ci.” value was 90% and 47%. The “% controlled, Py. or.” value with Pyricalaria oryzae (50 ppm) is 100% and 50%; in the data set on Pyricalaria oryzae (100 ppm) it was 100% and 50%. The “% controlled, Al.” value with Alternaria mali (50 ppm) is 75% and 38%; with Alternaria mali (100 ppm), 79% and 46%.
In the case of `C=CC[Si](Cn1cncn1)(C[Si](CC=C)(c1ccc(F)cc1)c1ccc(-c2ccccc2)cc1)c1ccc(F)cc1` (stereo not drawn) [4,6-(4-fluorophenyl)-6-(4-phenylphenyl)-4,6-disila-4-(1H-1,2,4-triazol-1-ylmethyl)-1,8-nonadiene], the inhibition of growth at 50 ppm in data set [1] (50 ppm) came to 79%; in the data set on Glomerella cingulata (50 ppm) it was 85%; with Physalospora baccae (50 ppm) it was 60%; in the data set with Rhizoctonia solani (50 ppm), 90%; with Phytophthora capsisi, 75%; with Pyricalaria oryzae it was 100%. Also, the inhibition of growth at 50 ppm in the data set on Alternaria mali (50 ppm) was determined as 62%; in the data set on Rhizopus sp. (50 ppm), 56%. Besides, the inhibition of growth at 100 ppm in data set [1] (100 ppm) was found to be 79%; with Glomerella cingulata (100 ppm), 87%; in the data set with Physalospora baccae (100 ppm), 65%; in the data set with Rhizoctonia solani (100 ppm), 96%; in the data set with Phytophthora capsisi it was 75%; in the data set on Pyricalaria oryzae it was 100%. The inhibition of growth at 100 ppm in the data set on Alternaria mali (100 ppm) is 65%; with Rhizopus sp. (100 ppm), 56%. The “% controlled, Fu. mo.” value is 40% in the data set on Fusarium moniliforme (50 ppm) and 46% in the data set on Fusarium moniliforme (100 ppm).
Take `C=CC[Si](C)(Cn1cncn1)C[Si](CC=C)(c1ccc(OCC)cc1)c1ccc(OCC)cc1` (stereo not drawn) [6,6-bis(4-ethoxyphenyl)-4-methyl-4,6-disila-4-(1H-1,2,4-triazol-1-ylmethyl)-1,8-nonadiene]: the inhibition of growth at 50 ppm in data set [1] (50 ppm) came to 70%; with Glomerella cingulata (50 ppm), 100%; in the data set with Botry tris cinerea (50 ppm), 100%; in the data set with Rhizoctonia solani (50 ppm), 100%; in the data set with Phytophthora capsisi it was 55%; in the data set on Pyricalaria oryzae it was 100%. The inhibition of growth at 50 ppm was determined as 100% with Alternaria mali (50 ppm) and 80% in the data set on Rhizopus sp. (50 ppm). Besides, the inhibition of growth at 100 ppm in data set [1] (100 ppm) came out at 72%; with Glomerella cingulata (100 ppm), 100%; with Botry tris cinerea (100 ppm), 100%; in the data set on Rhizoctonia solani (100 ppm), 100%; with Phytophthora capsisi, 60%; with Pyricalaria oryzae it was 100%. Further, the inhibition of growth at 100 ppm in the data set on Alternaria mali (100 ppm) was determined as 100%; in the data set with Rhizopus sp. (100 ppm) it was 80%. Besides, the “% controlled, Fu. mo.” value in the data set on Fusarium moniliforme (50 ppm) and with Fusarium moniliforme (100 ppm) was 100% in each case.
Regarding `C=CC[Si](CC=C)(Cn1cncn1)C[Si](CC=C)(CC=C)c1ccccc1` [6-phenyl-4,6-bis(2-propenyl)-4,6-disila-4-(1H-1,2,4-triazol-1-ylmethyl)-1,8-nonadiene], the inhibition of growth at 50 ppm in data set [1] (50 ppm) worked out at 65%; with Glomerella cingulata (50 ppm) it was 70%; in the data set with Physalospora baccae (50 ppm) it was 60%; in the data set with Botry tris cinerea (50 ppm) it was 80%; in the data set with Phytophthora capsisi, 60%; in the data set with Pyricalaria oryzae, 60%. The inhibition of growth at 50 ppm was determined as 75% in the data set on Alternaria mali (50 ppm) and 50% with Rhizopus sp. (50 ppm). Besides, the inhibition of growth at 100 ppm stood at 70% in [1] (100 ppm); 87% in the data set on Glomerella cingulata (100 ppm); 69% with Physalospora baccae (100 ppm); 96% in the data set with Botry tris cinerea (100 ppm); 70% in the data set on Phytophthora capsisi; 90% in the data set with Pyricalaria oryzae. Also, the inhibition of growth at 100 ppm is 79% in the data set on Alternaria mali (100 ppm) and 50% in the data set with Rhizopus sp. (100 ppm). Further, the “% controlled, Fu. mo.” value with Fusarium moniliforme (50 ppm) and in the data set on Fusarium moniliforme (100 ppm) was 46% in each case.
